Laboratory results: ChEMBL document CHEMBL4002599, “Structure-based design and synthesis of imidazo[1,2-a]pyridine derivatives as novel and potent Nek2 inhibitors with in vitro and in vivo antitumor activities” (Eur J Med Chem, 2017)
Blank lines part the entries; values can stand above or below the molecule they belong to. Activity calls are given as the source filed them. The calls are words filed in the database; no cut-off is given here.

Key:
HCT-116 [1] = experiment: Antitumor activity against human HCT116 cells xenografted in BALB/c nu/nu mouse assessed as reduction in tumor volume at 20 mg/kg, ip administered twice daily for 21 days; type: functional, organism-based
HCT-116 [2] = experiment: Induction of apoptosis in human HCT116 cells measured after 24 hrs by Annexin-V/PI staining based flow cytometry; type: functional, cell-based
HCT-116 [3] = experiment: Cell cycle arrest in human HCT116 cells assessed as accumulation at G2/M phase at 0.5 to 1 uM measured after 24 hrs by propidium iodide staining based flow cytometry; type: functional
HCT-116 [4] = experiment: Cell cycle arrest in human HCT116 cells assessed as G2/M phase accumulation by measuring >4N DNA content at 0.5 to 1 uM measured after 24 hrs by propidium iodide staining based flow cytometry; type: functional
[5] = target: T1, Serine/threonine-protein kinase Nek2 (Homo sapiens, UniProt P51955); experiment: Inhibition of N-terminal His6-tagged full-length recombinant human NEK2 expressed in baculovirus infected sf21 cells using biotin labelled-STK-3 substrate measured after 60 mins by HTRF assay
T1 sequence (P51955 whole entry): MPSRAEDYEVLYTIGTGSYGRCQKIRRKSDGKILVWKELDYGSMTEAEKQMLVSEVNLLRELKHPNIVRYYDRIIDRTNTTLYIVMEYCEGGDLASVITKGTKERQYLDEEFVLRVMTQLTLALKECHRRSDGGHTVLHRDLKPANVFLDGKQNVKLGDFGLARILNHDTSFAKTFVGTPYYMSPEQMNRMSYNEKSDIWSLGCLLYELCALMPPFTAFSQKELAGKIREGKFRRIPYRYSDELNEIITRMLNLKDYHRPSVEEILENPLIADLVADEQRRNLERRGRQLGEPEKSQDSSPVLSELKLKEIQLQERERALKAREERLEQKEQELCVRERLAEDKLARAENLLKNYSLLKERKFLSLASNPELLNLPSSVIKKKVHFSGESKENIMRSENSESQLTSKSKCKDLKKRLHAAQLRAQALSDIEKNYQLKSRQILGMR

MGC-803 = experiment: Cytotoxicity against human MGC803 cells measured after 72 hrs by MTT assay; type: functional, cell-based; conditions: MGC-803, 72 h
Mus musculus = experiment: Toxicity in BALB/c nu/nu mouse assessed as body weight loss at 20 mg/kg, ip administered twice daily for 21 days; type: organism-based; conditions: in vivo
HCT-116 [6] = experiment: Antitumor activity against human HCT116 cells xenografted in BALB/c nu/nu mouse assessed as tumor growth inhibition at 20 mg/kg, ip administered twice daily for 21 days; type: functional; conditions: HCT-116, ip, read-out: TGI
Rattus norvegicus [7] = experiment: AUC (0 to infinity) in Sprague-Dawley rat at 1 mg/kg, iv administered as bolus dose by LC-MS/MS method; type: ADME, organism-based; design: dose 1 mg/kg, time infinity, route intravenous; conditions: in vivo
[8] = Volume of distribution at steady state in Sprague-Dawley rat at 1 mg/kg, iv administered as bolus dose by LC-MS/MS method; type: ADME, organism-based; conditions: in vivo, read-out: Vdss
[9] = Half-life in Sprague-Dawley rat at 1 mg/kg, iv administered as bolus dose by LC-MS/MS method; type: ADME, organism-based; conditions: in vivo
Rattus norvegicus [10] = experiment: AUC (0 to t) in Sprague-Dawley rat at 1 mg/kg, iv administered as bolus dose by LC-MS/MS method; type: ADME, organism-based; conditions: in vivo
[11] = MRT (0 to t) in Sprague-Dawley rat at 1 mg/kg, iv administered as bolus dose by LC-MS/MS method; type: ADME, organism-based; conditions: in vivo
[12] = Clearance in Sprague-Dawley rat at 1 mg/kg, iv administered as bolus dose by LC-MS/MS method; type: ADME, organism-based; conditions: in vivo
Bel-7402 = experiment: Cytotoxicity against human Bel7402 cells measured after 72 hrs by MTT assay; type: functional, cell-based; conditions: Bel-7402, 72 h
[13] = target: T2, Serine/threonine-protein kinase Chk1 (Homo sapiens, UniProt O14757); experiment: Inhibition of CHK1 (unknown origin)
T2 sequence (O14757 whole entry): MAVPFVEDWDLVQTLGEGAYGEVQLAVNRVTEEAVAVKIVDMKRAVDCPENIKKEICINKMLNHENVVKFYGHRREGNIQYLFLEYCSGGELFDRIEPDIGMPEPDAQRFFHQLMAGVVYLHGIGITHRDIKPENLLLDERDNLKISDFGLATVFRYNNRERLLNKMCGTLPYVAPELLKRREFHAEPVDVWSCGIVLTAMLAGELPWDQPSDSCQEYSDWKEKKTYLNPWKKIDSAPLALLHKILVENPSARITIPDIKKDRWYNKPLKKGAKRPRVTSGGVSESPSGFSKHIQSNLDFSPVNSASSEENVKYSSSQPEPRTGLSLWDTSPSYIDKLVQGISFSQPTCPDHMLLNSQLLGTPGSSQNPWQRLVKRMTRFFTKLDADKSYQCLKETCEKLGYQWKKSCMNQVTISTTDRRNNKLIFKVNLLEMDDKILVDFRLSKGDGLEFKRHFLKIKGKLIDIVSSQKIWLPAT

[14] = target: Cyclin-dependent kinase 2 (Homo sapiens, UniProt P24941); experiment: Inhibition of CDK2 (unknown origin)
[15] = target: MAP kinase-activated protein kinase 2 (Homo sapiens, UniProt P49137); experiment: Inhibition of MAPKAPK2 (unknown origin)
MAP kinase-activated protein kinase 2, sequence (P49137 whole entry): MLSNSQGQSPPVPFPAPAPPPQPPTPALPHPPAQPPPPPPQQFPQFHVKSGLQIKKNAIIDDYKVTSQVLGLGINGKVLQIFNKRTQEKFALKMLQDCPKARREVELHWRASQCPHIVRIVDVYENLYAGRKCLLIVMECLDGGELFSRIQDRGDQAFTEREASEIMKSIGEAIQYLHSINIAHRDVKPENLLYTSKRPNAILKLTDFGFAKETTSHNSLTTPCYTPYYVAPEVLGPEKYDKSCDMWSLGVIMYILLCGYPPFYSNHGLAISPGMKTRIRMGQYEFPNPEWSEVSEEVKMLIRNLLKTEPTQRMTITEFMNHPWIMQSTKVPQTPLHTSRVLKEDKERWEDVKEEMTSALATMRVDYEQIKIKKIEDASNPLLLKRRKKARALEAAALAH

[16] = target: RAC-alpha serine/threonine-protein kinase (Homo sapiens, UniProt P31749); experiment: Inhibition of AKT1 (unknown origin)
RAC-alpha serine/threonine-protein kinase, sequence (P31749 whole entry): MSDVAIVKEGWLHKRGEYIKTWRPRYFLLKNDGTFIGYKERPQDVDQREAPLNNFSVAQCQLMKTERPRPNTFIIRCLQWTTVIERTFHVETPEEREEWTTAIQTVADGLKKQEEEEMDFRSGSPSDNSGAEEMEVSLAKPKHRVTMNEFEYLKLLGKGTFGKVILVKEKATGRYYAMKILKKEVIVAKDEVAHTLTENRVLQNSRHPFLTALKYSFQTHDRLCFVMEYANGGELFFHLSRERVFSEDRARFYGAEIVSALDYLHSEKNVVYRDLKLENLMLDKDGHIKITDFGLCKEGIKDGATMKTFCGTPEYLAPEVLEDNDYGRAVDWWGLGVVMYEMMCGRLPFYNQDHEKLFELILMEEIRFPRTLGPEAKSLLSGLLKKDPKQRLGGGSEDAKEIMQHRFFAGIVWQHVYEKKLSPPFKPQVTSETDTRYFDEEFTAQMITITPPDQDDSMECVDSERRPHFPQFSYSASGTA

HCT-116 [17] = experiment: Induction of apoptosis in human HCT116 cells assessed as early apoptotic cells at 1 uM measured after 24 hrs by Annexin-V/PI staining based flow cytometry (reference value: 4%); type: functional
HCT-116 [18] = experiment: Induction of apoptosis in human HCT116 cells assessed as late apoptotic cells at 1 uM measured after 24 hrs by Annexin-V/PI staining based flow cytometry (reference value: […]); type: functional
HCT-116 [19] = experiment: Induction of apoptosis in human HCT116 cells assessed as early apoptotic cells at 0.5 uM measured after 24 hrs by Annexin-V/PI staining based flow cytometry (reference value: 4%); type: functional
[20] = target: Glycogen synthase kinase-3 beta (Homo sapiens, UniProt P49841); experiment: Inhibition of GSK3beta (unknown origin)
Glycogen synthase kinase-3 beta, sequence (P49841 whole entry): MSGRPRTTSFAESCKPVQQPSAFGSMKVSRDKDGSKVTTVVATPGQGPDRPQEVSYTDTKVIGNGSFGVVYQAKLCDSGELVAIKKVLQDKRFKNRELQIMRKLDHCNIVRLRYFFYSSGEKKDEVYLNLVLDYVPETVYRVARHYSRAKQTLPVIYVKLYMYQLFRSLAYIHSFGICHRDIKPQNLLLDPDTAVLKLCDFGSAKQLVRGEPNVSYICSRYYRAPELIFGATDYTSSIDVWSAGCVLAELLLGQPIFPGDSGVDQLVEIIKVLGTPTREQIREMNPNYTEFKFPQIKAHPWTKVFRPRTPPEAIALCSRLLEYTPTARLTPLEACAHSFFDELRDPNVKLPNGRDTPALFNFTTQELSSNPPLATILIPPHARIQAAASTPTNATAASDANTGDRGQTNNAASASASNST

[21] = target: Cyclin-dependent kinase 4 (Homo sapiens, UniProt P11802); experiment: Inhibition of CDK4 (unknown origin)
Cyclin-dependent kinase 4, sequence (P11802 whole entry): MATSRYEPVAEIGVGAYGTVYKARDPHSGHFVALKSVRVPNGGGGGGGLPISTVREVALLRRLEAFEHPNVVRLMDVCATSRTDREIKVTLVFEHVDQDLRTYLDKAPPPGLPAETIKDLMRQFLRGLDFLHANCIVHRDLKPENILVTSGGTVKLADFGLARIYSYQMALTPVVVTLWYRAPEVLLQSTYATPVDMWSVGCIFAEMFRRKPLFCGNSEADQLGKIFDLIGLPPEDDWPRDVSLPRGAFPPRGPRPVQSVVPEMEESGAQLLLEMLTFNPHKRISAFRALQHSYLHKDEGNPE

HCT-116 [22] = experiment: Induction of apoptosis in human HCT116 cells assessed as late apoptotic cells at 0.5 uM measured after 24 hrs by Annexin-V/PI staining based flow cytometry (reference value: […]); type: functional
[23] = target: Tyrosine-protein kinase ABL1 (Homo sapiens, UniProt P00519); experiment: Inhibition of ABL (unknown origin)
Tyrosine-protein kinase ABL1, sequence (P00519 whole entry, canonical isoform): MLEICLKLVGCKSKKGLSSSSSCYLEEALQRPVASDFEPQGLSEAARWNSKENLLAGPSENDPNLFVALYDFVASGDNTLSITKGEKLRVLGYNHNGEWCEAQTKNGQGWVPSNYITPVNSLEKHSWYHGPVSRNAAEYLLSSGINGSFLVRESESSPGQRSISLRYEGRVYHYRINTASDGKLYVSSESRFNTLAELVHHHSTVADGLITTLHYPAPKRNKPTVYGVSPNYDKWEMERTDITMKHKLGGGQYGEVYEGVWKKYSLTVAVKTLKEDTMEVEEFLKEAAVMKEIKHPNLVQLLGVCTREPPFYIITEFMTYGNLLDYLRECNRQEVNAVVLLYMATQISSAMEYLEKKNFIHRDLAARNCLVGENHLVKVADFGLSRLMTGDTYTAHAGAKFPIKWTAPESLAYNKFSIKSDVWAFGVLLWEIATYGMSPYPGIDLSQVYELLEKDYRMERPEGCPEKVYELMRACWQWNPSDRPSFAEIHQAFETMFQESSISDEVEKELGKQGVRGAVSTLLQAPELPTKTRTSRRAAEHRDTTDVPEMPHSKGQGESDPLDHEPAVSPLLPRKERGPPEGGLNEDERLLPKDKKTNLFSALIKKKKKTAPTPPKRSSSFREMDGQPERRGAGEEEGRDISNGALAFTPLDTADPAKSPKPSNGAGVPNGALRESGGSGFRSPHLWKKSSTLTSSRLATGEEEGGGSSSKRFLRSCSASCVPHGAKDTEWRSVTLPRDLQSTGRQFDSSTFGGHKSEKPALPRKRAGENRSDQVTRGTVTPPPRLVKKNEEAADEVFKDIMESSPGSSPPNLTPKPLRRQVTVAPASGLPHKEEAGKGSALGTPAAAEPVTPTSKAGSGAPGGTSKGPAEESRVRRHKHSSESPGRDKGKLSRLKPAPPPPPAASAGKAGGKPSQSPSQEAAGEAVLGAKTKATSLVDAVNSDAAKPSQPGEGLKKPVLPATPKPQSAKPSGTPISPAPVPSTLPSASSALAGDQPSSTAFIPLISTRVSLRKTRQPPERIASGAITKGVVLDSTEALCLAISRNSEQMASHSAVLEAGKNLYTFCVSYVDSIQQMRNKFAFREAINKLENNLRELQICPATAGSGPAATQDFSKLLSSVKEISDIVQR

[24] = target: Phosphatidylinositol 4,5-bisphosphate 3-kinase catalytic subunit alpha isoform (Homo sapiens, UniProt P42336); experiment: Inhibition of PI3Kalpha (unknown origin)
Phosphatidylinositol 4,5-bisphosphate 3-kinase catalytic subunit alpha isoform, sequence (P42336 whole entry, canonical isoform): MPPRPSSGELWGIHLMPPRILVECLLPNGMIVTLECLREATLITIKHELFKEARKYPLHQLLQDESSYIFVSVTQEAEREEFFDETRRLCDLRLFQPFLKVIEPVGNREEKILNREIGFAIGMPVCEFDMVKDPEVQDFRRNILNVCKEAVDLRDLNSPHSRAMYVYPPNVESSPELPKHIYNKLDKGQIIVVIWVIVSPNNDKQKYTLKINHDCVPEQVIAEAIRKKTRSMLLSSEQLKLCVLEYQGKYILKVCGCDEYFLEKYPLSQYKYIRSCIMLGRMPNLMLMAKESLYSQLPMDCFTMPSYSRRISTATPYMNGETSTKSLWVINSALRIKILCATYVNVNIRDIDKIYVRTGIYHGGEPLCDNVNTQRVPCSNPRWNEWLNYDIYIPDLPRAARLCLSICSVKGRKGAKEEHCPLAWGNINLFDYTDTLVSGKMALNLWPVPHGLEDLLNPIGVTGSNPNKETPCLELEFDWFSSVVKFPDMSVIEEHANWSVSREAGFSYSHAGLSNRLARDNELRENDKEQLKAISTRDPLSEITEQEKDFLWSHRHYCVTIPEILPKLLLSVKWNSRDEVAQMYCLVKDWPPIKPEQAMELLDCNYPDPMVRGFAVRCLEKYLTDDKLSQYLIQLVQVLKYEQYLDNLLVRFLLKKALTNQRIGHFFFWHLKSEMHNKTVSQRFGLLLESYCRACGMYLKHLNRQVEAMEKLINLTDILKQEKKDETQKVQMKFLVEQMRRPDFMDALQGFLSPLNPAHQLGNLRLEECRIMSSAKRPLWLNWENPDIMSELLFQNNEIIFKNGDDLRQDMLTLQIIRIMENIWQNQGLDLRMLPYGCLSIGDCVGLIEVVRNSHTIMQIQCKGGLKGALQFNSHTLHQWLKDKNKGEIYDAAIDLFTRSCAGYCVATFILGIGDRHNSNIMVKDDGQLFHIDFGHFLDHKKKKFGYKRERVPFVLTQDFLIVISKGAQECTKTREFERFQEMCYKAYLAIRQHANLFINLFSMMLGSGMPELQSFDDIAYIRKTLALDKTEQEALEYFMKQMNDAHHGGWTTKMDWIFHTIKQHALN

HCT-116 [25] = experiment: Induction of apoptosis in human HCT116 cells assessed as necrotic cells at 1 uM measured after 24 hrs by Annexin-V/PI staining based flow cytometry (reference value: 0.4%); type: functional
[26] = target: Mitogen-activated protein kinase 14 (Homo sapiens, UniProt Q16539); experiment: Inhibition of P38alpha (unknown origin)
Mitogen-activated protein kinase 14, sequence (Q16539 whole entry): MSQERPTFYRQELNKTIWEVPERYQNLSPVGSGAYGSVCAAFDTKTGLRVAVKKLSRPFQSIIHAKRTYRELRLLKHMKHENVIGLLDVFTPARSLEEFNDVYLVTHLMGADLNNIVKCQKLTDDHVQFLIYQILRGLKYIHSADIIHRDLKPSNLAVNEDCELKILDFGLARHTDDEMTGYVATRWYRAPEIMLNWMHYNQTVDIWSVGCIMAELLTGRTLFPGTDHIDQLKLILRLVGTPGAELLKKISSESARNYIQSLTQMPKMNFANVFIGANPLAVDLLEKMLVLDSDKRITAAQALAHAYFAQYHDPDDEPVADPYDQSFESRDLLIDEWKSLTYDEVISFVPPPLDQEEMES

Aurora kinase A = target: T3, Aurora kinase A (Homo sapiens, UniProt O14965); experiment: Inhibition of Aurora A (unknown origin)
T3 sequence (O14965 whole entry): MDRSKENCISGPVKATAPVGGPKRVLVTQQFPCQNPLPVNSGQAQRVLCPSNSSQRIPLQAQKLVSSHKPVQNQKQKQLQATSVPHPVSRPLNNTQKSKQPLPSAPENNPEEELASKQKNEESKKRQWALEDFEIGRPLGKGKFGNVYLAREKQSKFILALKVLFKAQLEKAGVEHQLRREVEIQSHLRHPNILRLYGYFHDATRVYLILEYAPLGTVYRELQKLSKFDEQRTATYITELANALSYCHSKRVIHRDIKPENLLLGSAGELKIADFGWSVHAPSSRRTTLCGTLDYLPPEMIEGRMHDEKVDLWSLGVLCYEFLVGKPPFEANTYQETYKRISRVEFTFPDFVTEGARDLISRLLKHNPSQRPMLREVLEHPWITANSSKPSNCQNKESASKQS

HCT-116 [27] = experiment: Cytotoxicity against human HCT116 cells measured after 72 hrs by MTT assay; type: functional, cell-based; conditions: HCT-116, 72 h
HCT-116 [28] = experiment: Induction of apoptosis in human HCT116 cells assessed as necrotic cells at 0.5 uM measured after 24 hrs by Annexin-V/PI staining based flow cytometry (reference value: 0.4%); type: functional
[29] = target: Ribosomal protein S6 kinase alpha-1 (Homo sapiens, UniProt Q15418); experiment: Inhibition of RSK1 (unknown origin)
Ribosomal protein S6 kinase alpha-1, sequence (Q15418 whole entry): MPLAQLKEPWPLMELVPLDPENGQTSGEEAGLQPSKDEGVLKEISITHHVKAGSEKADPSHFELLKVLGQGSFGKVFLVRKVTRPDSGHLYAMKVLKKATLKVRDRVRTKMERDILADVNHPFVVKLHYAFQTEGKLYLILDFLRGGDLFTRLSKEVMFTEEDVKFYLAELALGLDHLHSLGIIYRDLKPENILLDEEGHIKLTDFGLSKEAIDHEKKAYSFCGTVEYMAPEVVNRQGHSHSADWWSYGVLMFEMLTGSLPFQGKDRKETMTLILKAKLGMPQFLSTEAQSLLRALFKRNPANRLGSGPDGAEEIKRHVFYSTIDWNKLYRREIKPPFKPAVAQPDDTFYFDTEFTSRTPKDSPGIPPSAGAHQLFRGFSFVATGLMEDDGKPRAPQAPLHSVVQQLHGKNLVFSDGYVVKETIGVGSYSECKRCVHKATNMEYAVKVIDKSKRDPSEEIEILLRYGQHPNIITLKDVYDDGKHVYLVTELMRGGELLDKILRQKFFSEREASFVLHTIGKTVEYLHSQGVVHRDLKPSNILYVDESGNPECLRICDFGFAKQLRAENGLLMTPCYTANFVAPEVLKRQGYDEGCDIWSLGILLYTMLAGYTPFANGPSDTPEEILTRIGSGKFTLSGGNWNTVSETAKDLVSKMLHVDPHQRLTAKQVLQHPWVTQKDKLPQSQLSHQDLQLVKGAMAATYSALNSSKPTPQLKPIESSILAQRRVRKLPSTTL

[30] = target: Dual specificity tyrosine-phosphorylation-regulated kinase 1A (Homo sapiens, UniProt Q13627); experiment: Inhibition of DYRK1A (unknown origin)

Compound: CN(C)CCn1cc(-c2ccn3c(-c4ccc(C(N)=O)c(OCc5cccc(F)c5)c4)cnc3c2)cn1 [listing 1 of 2 here]
Activity (HCT-116 [1]): Active
Activity (HCT-116 [2]): Dose-dependent effect
Activity (HCT-116 [3]): Active
Activity (HCT-116 [4]): Active

IC50 [5]: 10 µM
Compound: CN1CCN(c2ccn3c(-c4ccc(C(=O)NO)c(OCc5ccccc5C(F)(F)F)c4)cnc3c2)CC1
IC50 (MGC-803): 17.1 µM

Compound: CN(C)CCn1cc(-c2ccn3c(-c4ccc(C(N)=O)c(OCc5cccc(F)c5)c4)cnc3c2)cn1.O=C(O)CCC(=O)O.O=C(O)CCC(=O)O
Activity (Mus musculus): Non-Toxic
inhibition in vivo at 20 mg/kg (HCT-116 [6]): 36%

IC50 [5]: 42.6 µM
Compound: COC(=O)c1ccc(-c2cnc3cc(N4CCN(C)CC4)ccn23)cc1OC(C)c1ccccc1C(F)(F)F (stereo not drawn)

AUC (Rattus norvegicus [7]): 405 ng·h/mL
Vd [8]: 4.06 L/kg
half-life [9]: 145 min
AUCt (Rattus norvegicus [10]): 386 ng·h/mL
MRT last [11]: 1.68 h
clearance [12]: 42.4 mL/min/kg
Compound: CN(C)CCn1cc(-c2ccn3c(-c4ccc(C(N)=O)c(OCc5ccccc5)c4)cnc3c2)cn1

IC50 [13]: 57 nM
AUC (Rattus norvegicus [7]): 507 ng·h/mL
IC50 [14]: 370 nM
IC50 [15]: > 10 µM
IC50 [16]: 608 nM
IC50 [5]: 0.001 µM
IC50 [20]: 91 nM
IC50 [21]: 441 nM
Vd [8]: 2.53 L/kg
half-life [9]: 103 min
AUCt (Rattus norvegicus [10]): 495 ng·h/mL
IC50 [23]: 20 nM
IC50 [24]: 6.23 µM
IC50 [26]: > 10 µM
IC50 (Aurora kinase A): 5.3 µM
MRT last [11]: 1.3 h
clearance [12]: 33.3 mL/min/kg
IC50 [29]: 5.4 nM
IC50 [30]: 6.5 nM
Compound: CN(C)CCn1cc(-c2ccn3c(-c4ccc(C(N)=O)c(OCc5cccc(F)c5)c4)cnc3c2)cn1 [listing 2 of 2 here]
IC50 (Bel-7402): 7.13 µM
Activity (HCT-116 [17]): 27.8%
Activity (HCT-116 [18]): 26.7%
Activity (HCT-116 [19]): 21.3%
Activity (HCT-116 [22]): 20.1%
Activity (HCT-116 [25]): 3.5%
IC50 (HCT-116 [27]): 840 nM
Activity (HCT-116 [28]): 2.6%
IC50 (MGC-803): 0.53 µM

IC50 [5]: 197 µM
Compound: CNC(=O)c1ccc(-c2cnc3cc(N4CCN(C)CC4)ccn23)cc1OC(C)c1ccccc1C(F)(F)F (stereo not drawn)

IC50 [5]: 3.21 µM
Compound: CN1CCN(c2ccn3c(-c4ccc(C(N)=O)c(OCc5ccccc5)c4)cnc3c2)CC1
IC50 (MGC-803): 6.21 µM

IC50 [5]: 1.19 µM
Compound: C[C@@H](Oc1cc(-c2cnc3cc(N4CCN(C)CC4)ccn23)ccc1C(N)=O)c1ccccc1C(F)(F)F
IC50 (MGC-803): 3.16 µM

IC50 [5]: 2.17 µM
Compound: CC(Oc1cc(-c2cnc3cc(N4CCN(C)CC4)ccn23)ccc1C(N)=O)c1ccccc1C(F)(F)F (stereo not drawn)
IC50 (MGC-803): 12.3 µM

AUC (Rattus norvegicus [7]): 268 ng·h/mL
IC50 [5]: 0.007 µM
Vd [8]: 5.08 L/kg
half-life [9]: 89.4 min
AUCt (Rattus norvegicus [10]): 262 ng·h/mL
IC50 (Aurora kinase A): > 10 µM
MRT last [11]: 1.38 h
clearance [12]: 62.8 mL/min/kg
Compound: CN(C)CCn1cc(-c2ccn3c(-c4ccc(C(N)=O)c(OCc5cccc(C(F)(F)F)c5)c4)cnc3c2)cn1
IC50 (Bel-7402): 2.78 µM
IC50 (HCT-116 [27]): 1290 nM
IC50 (MGC-803): 0.79 to 0.8 µM

IC50 [5]: 19.3 µM
Compound: COc1cc(-c2cnc3cc(N4CCN(C)CC4)ccn23)ccc1C(N)=O
IC50 (MGC-803): > 30 µM
